Measured values reported in patent publication US20260048046A1, “METHOD FOR IMPROVING GROWTH PERFORMANCE IN FEEDLOT CATTLE” (Elanco US Inc., priority 2022, published 2026).

Test system: beef feedlot cattle
Test: 56-d study: growth performance
Assay type: in vivo
Parameters: Average daily dry matter (DMI) / Average daily dry matter (DMI), difference from control: unit not given here
Conditions: for Average daily dry matter (DMI) / Average daily gain (ADG) / Gain:feed, ADG:DMI / Final BW: 56 d treatment, steers, LS mean; for Final BW: initial weight as covariate
Method: This example describes a randomized complete block study that evaluated LUB dose (0, 1.5, 3.5, and 5.5 mg kg^−1 dry matter) during the last 56 d of the feeding period on live weight, carcass weight, and associated ratios in beef feedlot cattle. Carcass characteristics, mobility, and health were also evaluated. All cattle received monensin and tylosin throughout the study.
A randomized complete block design was used to evaluate the effects of LUB on calculated growth performance of 2,880 British and Continental European crossbred steers typical for U.S. feedlots. Bos indicus breeding was limited to less than ⅛. The study evaluated four
LUB doses: 0 (control, CON), 1.5, 3.5, and 5.5 mg·kg^−1 DM. There were 12 blocks, each block containing four replicate pens that started LUB feeding on the same date. Steers were randomized within each block of four pens with 60 steers per pen, resulting in a total of 720 steers enrolled in each treatment. LUB feeding started on Jun. 24, 2018, Jul. 1, 2018, and Jul. 15, 2018, four blocks on each date.
Beginning no later than approximately d −70, animals were fed a diet containing Rumensin (monensin 46.3 mg·kg^−1 100% DM basis; Elanco, Greenfield, IN, USA) and Tylan (tylosin 8.9 mg·kg^−1 100% DM basis; Elanco) ad libitum. Cattle in the LUB treatments were switched from the basal finishing ration to the finishing ration containing the appropriate concentrations of LUB Type A premix at the start of the treatment period (d −57). Table 5 lists the composition and the formulated nutrient composition of the finishing diet. The diet was designed to meet or exceed the minimum nutrient requirements cited in Nutrient Requirements of Beef Cattle (NASEM, 2016). LUB was delivered to the cattle using a 1% LUB Type A premix prepared and delivered by Elanco (Clinton Laboratories, Clinton, IN, USA), and the ration was prepared on-site at the research facility. The 1% Type A premix was delivered into the ration by flushing the 1% Type A premix through a micro-ingredient machine (Micro Technologies, Amarillo, TX) with water, which was included at approximately 27 kg of the “as-fed” ration, for each 3,629 kg batch. The 1% Type A premix was included in the finishing ration at 0, 0.0154%, 0.0353%, or 0.0551% (100% DM) to provide CON, 1.5, 3.5, or 5.5 mg·kg^−1 LUB (100% DM). The on-site feed mixers used to mix (stationary horizontal paddle mixer [Cactus Varied Industries, Amarillo, TX, USA]) and deliver (Roto-Mix 490-14 and Roto-Mix 620-16, Roto-Mix LLC, Dodge City, KS) the Type C feed were qualified to confirm that the ration could be mixed homogeneously before feeding medicated feed. Cattle were fed in order of CON, 1.5, 3.5, or 5.5 mg·kg^−1 doses of LUB. Prior to mixing the CON batches, the mixer was flushed with appropriate amount of non-medicated feed or other cattle feed to assure no carryover of test compound. Feed was issued three times each day at approximately the same time each day. Bunk calls were made at the time of first feeding and amount of feed issued for the third feeding was adjusted based on daily bunk calls according to site procedures. The feeding goal was to have slick bunks prior to the first feeding and approximately ⅓ of the cattle at the bunk, ⅓ of the cattle moving to the bunk, and ⅓ of the cattle not moving to the bunk at time of first feeding. Water was available ad libitum throughout the study. The weight of feed issued was recorded and electronic feed records were provided for data analysis.
Animals were weighed individually at the time of randomization (approximately d −69 to d −66) and this weight was used to exclude steers with extreme BW from the trial. All other BW (unshrunk) were collected by pen and used for calculation of growth performance. Scheduled pen weights were taken prior to feed delivery and collected on d −59 (2 d before treatment start, which was considered the treatment start weight) and d 0 (1 d after the end of treatment, which was considered the treatment end weight). […]

[1] = steers fed LUB (doses pooled), 56 d

In the case of `CC(C)(Cc1ccc(Oc2ncccc2C#N)cc1)NC[C@H](O)COc1ccccc1-c1cccs1` [LUB, 2-{4-[2-({(2S)-2-Hydroxy-3-[2-(2-thienyl)phenoxy]propyl}amino)-2-methylpropyl]phenoxy}nicotinonitrile], the “Average daily dry matter (DMI), difference from control” value (1.5 mg·kg^−1 vs. control, 56 d) is reported as 0.2, the “Average daily dry matter (DMI), percent change from Control” value (1.5 mg·kg^−1 vs. control, 56 d) is reported as 2.0% and the “Average daily gain (ADG), difference from control” value (1.5 mg·kg^−1 vs. control, 56 d) is reported as 0.19 kg. For the same compound, the “Average daily gain (ADG), percent change from Control” value (1.5 mg·kg^−1 vs. control, 56 d) was 11.3%, the “Final BW, difference from control” value (1.5 mg·kg^−1 vs. control, 56 d) was 11.6 kg and the “Final BW, percent change from Control” value (1.5 mg·kg^−1 vs. control, 56 d) was 1.7%. For the same compound, the “Gain:feed, ADG:DMI, difference from control” value (“Gain:feed, ADG:DMI, difference” below) (1.5 mg·kg^−1 vs. control, 56 d) was 0.015, the “Gain:feed, ADG:DMI, percent change from Control” value (1.5 mg·kg^−1 vs. control, 56 d) was 9.0% and the “Average daily dry matter (DMI), difference from control” value (3.5 mg·kg^−1 vs. control, 56 d) was 0.3. The “Average daily dry matter (DMI), percent change from Control” value (3.5 mg·kg^−1 vs. control, 56 d) was 3.0%, the “Average daily gain (ADG), difference from control” value (3.5 mg·kg^−1 vs. control, 56 d) was 0.26 kg and the “Average daily gain (ADG), percent change from Control” value (3.5 mg·kg^−1 vs. control, 56 d) was 15.5%. For the same compound, the “Final BW, difference from control” value (3.5 mg·kg^−1 vs. control, 56 d) was 15.7 kg, the “Final BW, percent change from Control” value (3.5 mg·kg^−1 vs. control, 56 d) was 2.4% and the “Gain:feed, ADG:DMI, difference” value (3.5 mg·kg^−1 vs. control, 56 d) was 0.028. For the same compound, the “Gain:feed, ADG:DMI, percent change from Control” value (3.5 mg·kg^−1 vs. control, 56 d) was 12.0%, the “Average daily dry matter (DMI), difference from control” value (5.5 mg·kg^−1 vs. control, 56 d) was 0.2 and the “Average daily dry matter (DMI), percent change from Control” value (5.5 mg·kg^−1 vs. control, 56 d) was 2.0%. The “Average daily gain (ADG), difference from control” value (5.5 mg·kg^−1 vs. control, 56 d) was 0.24 kg, the “Average daily gain (ADG), percent change from Control” value (5.5 mg·kg^−1 vs. control, 56 d) was 14.3% and the “Final BW, difference from control” value (5.5 mg·kg^−1 vs. control, 56 d) was 14.3 kg. The “Final BW, percent change from Control” value (5.5 mg·kg^−1 vs. control, 56 d) was 2.1%, the “Gain:feed, ADG:DMI, difference” value (5.5 mg·kg^−1 vs. control, 56 d) was 0.019 and the “Gain:feed, ADG:DMI, percent change from Control” value (5.5 mg·kg^−1 vs. control, 56 d) was 11.4%. The “Average daily dry matter (DMI)” value (LUB 1.5 mg·kg^−1 DM) was 10.3, the “Average daily gain (ADG)” value (LUB 1.5 mg·kg^−1 DM) was 1.87 kg and the “Gain:feed, ADG:DMI” value (LUB 1.5 mg·kg^−1 DM) was 0.182. The “Final BW” value (LUB 1.5 mg·kg^−1 DM) was 679.0 kg, the “Average daily dry matter (DMI)” value (LUB 3.5 mg·kg^−1 DM) was 10.4 and the “Average daily gain (ADG)” value (LUB 3.5 mg·kg^−1 DM) was 1.94 kg. The “Gain:feed, ADG:DMI” value (LUB 3.5 mg·kg^−1 DM) was 0.187, the “Final BW” value (LUB 3.5 mg·kg^−1 DM) was 683.1 kg and the “Average daily dry matter (DMI)” value (LUB 5.5 mg·kg^−1 DM) was 10.3. The “Average daily gain (ADG)” value (LUB 5.5 mg·kg^−1 DM) was 1.92 kg, the “Gain:feed, ADG:DMI” value (LUB 5.5 mg·kg^−1 DM) was 0.186 and the “Final BW” value (LUB 5.5 mg·kg^−1 DM) was 681.7 kg. For the same compound, the Average daily gain [1] was 1.91 kg, the “Average daily gain greater than control” value [1] was 13.7% and the Gain efficiency [1] was 0.185. For the same compound, the “Gain efficiency greater than control” value [1] was 10.8% and the “Daily dry matter intake greater than control” value (steers that received LUB (doses pooled), 56 d) was 2.3%.
